Source: patent US20230143604A1, “QW DOSING OF GIP RECEPTOR AGONIST PEPTIDE COMPOUNDS AND USES THEREOF” (TAKEDA PHARMACEUTICAL COMPANY LIMITED, priority 2020, published 2023)
Starred links: 1 amine or outer side, 2 acyl side, 3 side chain; linkers in the order of their positions; H or OH if unused. Non-standard residues stand in square brackets, D forms with d. Residues, ends and D or L forms follow the SMILES beside them. Groups on a side chain read outwards from the residue. *: point of attachment. C18 diacid = O=C(O)CCCCCCCCCCCCCCCCC(=O)*; C17 diacid = O=C(O)CCCCCCCCCCCCCCCC(=O)*; γGlu = O=C(O)[C@H](CCC(=O)[*:2])N[*:1]; NMeY = CN[C@@H](Cc1ccc(O)cc1)C(=O)O; AEEA = NCCOCCOCC(=O)O; Aib = CC(C)(N)C(=O)O

Test: physchem
Method in brief: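 3 mg of peptide treated with 100 μL portions of 200 mM phosphate buffer pH 7.4, sonicating/vortexing up to 1 min, with further buffer added until fully dissolved. Solubility then quantified by HPLC.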

[1] = pH 7.4, aqueous buffer, pH 7.4 Phosphate Buffer - Solubility, 200 mM Phosphate buffer pH 7.4
[2] = pH 7.4, solubility in phosphate buffer at pH 7.4, 200 mM phosphate buffer pH 7.4

Structure (SMILES) | solubility (pH 7.4) | solubility (pH 7.4, aqueous buffer) | solubility [1] | solubility [2]
CC[C@H](C)[C@H](NC(=O)[C@H](CO)NC(=O)[C@H](Cc1ccc(O)cc1)NC(=O)[C@H](CC(=O)O)NC(=O)[C@H](CO)NC(=O)[C@@H](NC(=O)[C@H](Cc1ccccc1)NC(=O)[C@@H](NC(=O)CNC(=O)[C@H](CCC(=O)O)NC(=O)C(C)(C)NC(=O)[C@H](Cc1ccc(O)cc1)NC)[C@@H](C)O)[C@@H](C)CC)C(=O)N[C@@H](C)C(=O)N[C@@H](CC(C)C)C(=O)N[C@@H](CC(=O)O)C(=O)N[C@@H](CCCNC(=N)N)C(=O)NC(C)(C)C(=O)N[C@@H](C)C(=O)N[C@@H](CCC(N)=O)C(=O)NC(C)(C)C(=O)N[C@@H](CCCCNC(=O)COCCOCCNC(=O)COCCOCCNC(=O)CC[C@H](NC(=O)CC[C@H](NC(=O)CCCCCCCCCCCCCCCC(=O)O)C(=O)O)C(=O)O)C(=O)N[C@@H](Cc1ccccc1)C(=O)N[C@H](C(=O)N[C@@H](CC(N)=O)C(=O)N[C@@H](Cc1c[nH]c2ccccc12)C(=O)N[C@@H](CC(C)C)C(=O)N[C@@H](CC(C)C)C(=O)N[C@@H](C)C(=O)N[C@@H](CCC(N)=O)C(=O)N[C@@H](CCCNC(=N)N)C(=O)NCC(=O)NCC(=O)NCC(=O)NCC(=O)N[C@@H](CO)C(N)=O)C(C)C [Compound 30] (H-[NMeY][Aib]EGTFISDYSIALDR[Aib]AQ[Aib]K([AEEA-AEEA-γGlu-γGlu-C17 diacid])FVNWLLAQRGGGGS-NH2) | ≥ 15 mg/mL | ≥ 30 mg/mL | – | –
CC[C@H](C)[C@H](NC(=O)[C@H](CO)NC(=O)[C@H](Cc1ccc(O)cc1)NC(=O)[C@H](CC(=O)O)NC(=O)[C@H](CO)NC(=O)[C@@H](NC(=O)[C@H](Cc1ccccc1)NC(=O)[C@@H](NC(=O)CNC(=O)[C@H](CCC(=O)O)NC(=O)C(C)(C)NC(=O)[C@H](Cc1ccc(O)cc1)NC)[C@@H](C)O)[C@@H](C)CC)C(=O)N[C@@H](C)C(=O)N[C@@H](CC(C)C)C(=O)N[C@@H](CC(=O)O)C(=O)N[C@@H](CCCNC(=N)N)C(=O)NC(C)(C)C(=O)N[C@@H](CCCCNC(=O)COCCOCCNC(=O)COCCOCCNC(=O)CC[C@H](NC(=O)CC[C@H](NC(=O)CCCCCCCCCCCCCCCC(=O)O)C(=O)O)C(=O)O)C(=O)N[C@@H](CCC(N)=O)C(=O)NC(C)(C)C(=O)N[C@@H](CC(N)=O)C(=O)N[C@@H](Cc1ccccc1)C(=O)N[C@H](C(=O)N[C@@H](CC(N)=O)C(=O)N[C@@H](Cc1c[nH]c2ccccc12)C(=O)N[C@@H](CC(C)C)C(=O)N[C@@H](CC(C)C)C(=O)N[C@@H](C)C(=O)N[C@@H](CCC(N)=O)C(=O)N[C@@H](CO)C(=O)NCC(=O)NCC(=O)NCC(=O)NCC(=O)N[C@@H](CO)C(N)=O)C(C)C [Compound 31] (H-[NMeY][Aib]EGTFISDYSIALDR[Aib]K([AEEA-AEEA-γGlu-γGlu-C17 diacid])Q[Aib]NFVNWLLAQSGGGGS-NH2) | ≥ 15 mg/mL | ≥ 30 mg/mL | – | –
CC[C@H](C)[C@H](NC(=O)[C@H](Cc1ccccc1)NC(=O)[C@@H](NC(=O)CNC(=O)[C@H](CCC(=O)O)NC(=O)C(C)(C)NC(=O)[C@H](Cc1ccc(O)cc1)NC)[C@@H](C)O)C(=O)N[C@@H](CO)C(=O)N[C@@H](CC(=O)O)C(=O)N[C@@H](Cc1ccc(O)cc1)C(=O)N[C@@H](CO)C(=O)N[C@H](C(=O)NC(C)(C)C(=O)N[C@@H](CCCCNC(=O)COCCOCCNC(=O)COCCOCCNC(=O)CC[C@H](NC(=O)CC[C@H](NC(=O)CCCCCCCCCCCCCCCC(=O)O)C(=O)O)C(=O)O)C(=O)N[C@@H](CC(=O)O)C(=O)N[C@@H](CCCNC(=N)N)C(=O)NC(C)(C)C(=O)N[C@@H](C)C(=O)N[C@@H](CCC(N)=O)C(=O)NC(C)(C)C(=O)N[C@@H](CC(N)=O)C(=O)N[C@@H](Cc1ccccc1)C(=O)N[C@H](C(=O)N[C@@H](CC(N)=O)C(=O)N[C@@H](Cc1c[nH]c2ccccc12)C(=O)N[C@@H](CC(C)C)C(=O)N[C@@H](CC(C)C)C(=O)N[C@@H](C)C(=O)N[C@@H](CCC(N)=O)C(=O)N[C@@H](CCCNC(=N)N)C(=O)NCC(=O)NCC(=O)NCC(=O)NCC(=O)N[C@@H](CO)C(N)=O)C(C)C)[C@@H](C)CC [Compound 32] (H-[NMeY][Aib]EGTFISDYSI[Aib]K([AEEA-AEEA-γGlu-γGlu-C17 diacid])DR[Aib]AQ[Aib]NFVNWLLAQRGGGGS-NH2) | ≥ 15 mg/mL | ≥ 30 mg/mL | – | –
CC[C@H](C)[C@H](NC(=O)[C@H](Cc1ccccc1)NC(=O)[C@@H](NC(=O)CNC(=O)[C@H](CCC(=O)O)NC(=O)C(C)(C)NC(=O)[C@H](Cc1ccc(O)cc1)NC)[C@@H](C)O)C(=O)N[C@@H](CO)C(=O)N[C@@H](CC(=O)O)C(=O)N[C@@H](Cc1ccc(O)cc1)C(=O)N[C@@H](CO)C(=O)N[C@H](C(=O)NC(C)(C)C(=O)N[C@@H](CC(C)C)C(=O)N[C@@H](CC(=O)O)C(=O)N[C@@H](CCCNC(=N)N)C(=O)NC(C)(C)C(=O)N[C@@H](C)C(=O)N[C@@H](CCC(N)=O)C(=O)NC(C)(C)C(=O)N[C@@H](CC(N)=O)C(=O)N[C@@H](Cc1ccccc1)C(=O)N[C@H](C(=O)N[C@@H](CC(N)=O)C(=O)N[C@@H](Cc1c[nH]c2ccccc12)C(=O)N[C@@H](CC(C)C)C(=O)N[C@@H](CC(C)C)C(=O)N[C@@H](C)C(=O)N[C@@H](CCC(N)=O)C(=O)N[C@@H](CCCCNC(=O)COCCOCCNC(=O)COCCOCCNC(=O)CC[C@H](NC(=O)CC[C@H](NC(=O)CCCCCCCCCCCCCCCC(=O)O)C(=O)O)C(=O)O)C(=O)NCC(=O)NCC(=O)NCC(=O)NCC(=O)N[C@@H](CO)C(N)=O)C(C)C)[C@@H](C)CC [Compound 33] (H-[NMeY][Aib]EGTFISDYSI[Aib]LDR[Aib]AQ[Aib]NFVNWLLAQK([AEEA-AEEA-γGlu-γGlu-C17 diacid])GGGGS-NH2) | ≥ 15 mg/mL | ≥ 30 mg/mL | – | –
CC[C@H](C)[C@H](NC(=O)[C@H](CO)NC(=O)[C@H](Cc1ccc(O)cc1)NC(=O)[C@H](CC(=O)O)NC(=O)[C@H](CO)NC(=O)[C@@H](NC(=O)[C@H](Cc1ccccc1)NC(=O)[C@@H](NC(=O)CNC(=O)[C@H](CCC(=O)O)NC(=O)C(C)(C)NC(=O)[C@H](Cc1ccc(O)cc1)NC)[C@@H](C)O)[C@@H](C)CC)C(=O)N[C@@H](C)C(=O)N[C@@H](CCCCNC(=O)CNC(=O)CNC(=O)CNC(=O)CNC(=O)CNC(=O)CC[C@H](NC(=O)CC[C@H](NC(=O)CCCCCCCCCCCCCCCCC(=O)O)C(=O)O)C(=O)O)C(=O)N[C@@H](CC(=O)O)C(=O)N[C@@H](CCCNC(=N)N)C(=O)NC(C)(C)C(=O)N[C@@H](C)C(=O)N[C@@H](CCC(N)=O)C(=O)NC(C)(C)C(=O)N[C@@H](CC(N)=O)C(=O)N[C@@H](Cc1ccccc1)C(=O)N[C@H](C(=O)N[C@@H](CC(N)=O)C(=O)N[C@@H](Cc1c[nH]c2ccccc12)C(=O)N[C@@H](CC(C)C)C(=O)N[C@@H](CC(C)C)C(=O)N[C@@H](C)C(=O)N[C@@H](CCC(N)=O)C(=O)N[C@@H](CCCNC(=N)N)C(=O)N1CCC[C@H]1C(=O)N[C@@H](CO)C(=O)N[C@@H](CO)C(=O)NCC(=O)N[C@@H](C)C(=O)N1CCC[C@H]1C(=O)N1CCC[C@H]1C(=O)N1CCC[C@H]1C(=O)N[C@@H](CO)C(N)=O)C(C)C [Compound 34] | – | – | ≥ 30 mg/mL | ≥ 15 mg/mL
CC[C@H](C)[C@H](NC(=O)[C@H](CO)NC(=O)[C@H](Cc1ccc(O)cc1)NC(=O)[C@H](CC(=O)O)NC(=O)[C@H](CO)NC(=O)[C@@H](NC(=O)[C@H](Cc1ccccc1)NC(=O)[C@@H](NC(=O)CNC(=O)[C@H](CCC(=O)O)NC(=O)C(C)(C)NC(=O)[C@H](Cc1ccc(O)cc1)NC)[C@@H](C)O)[C@@H](C)CC)C(=O)N[C@@H](C)C(=O)N[C@@H](CC(C)C)C(=O)N[C@@H](CC(=O)O)C(=O)N[C@@H](CCCNC(=N)N)C(=O)NC(C)(C)C(=O)N[C@@H](C)C(=O)N[C@@H](CCC(N)=O)C(=O)NC(C)(C)C(=O)N[C@@H](CCCCNC(=O)COCCOCCNC(=O)COCCOCCNC(=O)CC[C@H](NC(=O)CC[C@H](NC(=O)CCCCCCCCCCCCCCCCC(=O)O)C(=O)O)C(=O)O)C(=O)N[C@@H](Cc1ccccc1)C(=O)N[C@H](C(=O)N[C@@H](CC(N)=O)C(=O)N[C@@H](Cc1c[nH]c2ccccc12)C(=O)N[C@@H](CC(C)C)C(=O)N[C@@H](CC(C)C)C(=O)N[C@@H](C)C(=O)N[C@@H](CCC(N)=O)C(=O)N[C@@H](CCCNC(=N)N)C(=O)N1CCC[C@H]1C(=O)N[C@@H](CO)C(=O)N[C@@H](CO)C(=O)NCC(=O)N[C@@H](C)C(=O)N1CCC[C@H]1C(=O)N1CCC[C@H]1C(=O)N1CCC[C@H]1C(=O)N[C@@H](CO)C(N)=O)C(C)C [Compound 35] (H-[NMeY][Aib]EGTFISDYSIALDR[Aib]AQ[Aib]K([AEEA-AEEA-γGlu-γGlu-C18 diacid])FVNWLLAQRPSSGAPPPS-NH2) | – | – | ≥ 30 mg/mL | ≥ 15 mg/mL
CC[C@H](C)[C@H](NC(=O)[C@H](CO)NC(=O)[C@H](Cc1ccc(O)cc1)NC(=O)[C@H](CC(=O)O)NC(=O)[C@H](CO)NC(=O)[C@@H](NC(=O)[C@H](Cc1ccccc1)NC(=O)[C@@H](NC(=O)CNC(=O)[C@H](CCC(=O)O)NC(=O)C(C)(C)NC(=O)[C@H](Cc1ccc(O)cc1)NC)[C@@H](C)O)[C@@H](C)CC)C(=O)N[C@@H](C)C(=O)N[C@@H](CC(C)C)C(=O)N[C@@H](CC(=O)O)C(=O)N[C@@H](CCCNC(=N)N)C(=O)NC(C)(C)C(=O)N[C@@H](C)C(=O)N[C@@H](CCC(N)=O)C(=O)NC(C)(C)C(=O)N[C@@H](CCCCNC(=O)COCCOCCNC(=O)COCCOCCNC(=O)CC[C@H](NC(=O)CC[C@H](NC(=O)CCCCCCCCCCCCCCCCC(=O)O)C(=O)O)C(=O)O)C(=O)N[C@@H](Cc1ccccc1)C(=O)N[C@H](C(=O)N[C@@H](CC(N)=O)C(=O)N[C@@H](Cc1c[nH]c2ccccc12)C(=O)N[C@@H](CC(C)C)C(=O)N[C@@H](CC(C)C)C(=O)N[C@@H](C)C(=O)N[C@@H](CCC(N)=O)C(=O)N[C@@H](CO)C(=O)NCC(=O)O)C(C)C [Compound 42] (H-[NMeY][Aib]EGTFISDYSIALDR[Aib]AQ[Aib]K([AEEA-AEEA-γGlu-γGlu-C18 diacid])FVNWLLAQSG-OH) | ≥ 15 mg/mL | ≥ 30 mg/mL | – | –
